# System: inflammatory acne of the face
# Test: Clinical trial in patients with inflammatory acne of the face
# Type: in vivo, human patients
# Details: 10 patients 14 to 23 years old; benzoyl peroxide 4 cases, erythromycin 3 cases, nicotinamide gel 3 cases
# Excerpt: The composition used is a gel in accordance with that whose composition is given in example 2.
row,Structure (SMILES),improvement of acne with conventional treatment
1,CC[C@H]1OC(=O)[C@H](C)[C@@H](O[C@H]2C[C@@](C)(OC)[C@@H](O)[C@H](C)O2)[C@H](C)[C@@H](O[C@@H]2O[C@H](C)C[C@H](N(C)C)[C@H]2O)[C@](C)(O)C[C@@H](C)C(=O)[C@H](C)[C@@H](O)[C@]1(C)O [erythromycin],no notable improvement
2,O=C(OOC(=O)c1ccccc1)c1ccccc1 [benzoyl peroxide],no notable improvement

# Source: patent publication US20040170591A1, “Dermatological composition comprising nicotinic acid or an amide, and a sphingoid base” (priority 2001, published 2004)
